Test results published in PubChem BioAssay (NCI).
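Test compounds were applied to cells in 96-well plates for 48 hours at 5 doses. GI50 is the concentration that inhibits growth by half. TGI: concentration producing complete growth inhibition.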

Assays:
Test in all cases: NCI anticancer screen, dose series, 48 h
A549 NSCLC = tested on: A549 NSCLC
ACHN renal = tested on: ACHN renal
CAKI-1 renal = tested on: CAKI-1 renal
CCRF-CEM leukemia = tested on: CCRF-CEM leukemia
COLO 205 colon = tested on: COLO 205 colon
DU-145 prostate = tested on: DU-145 prostate
EKVX NSCLC = tested on: EKVX NSCLC
HCC-2998 colon = tested on: HCC-2998 colon
HCT-116 colon = tested on: HCT-116 colon
HCT-15 colon = tested on: HCT-15 colon
HL-60(TB) leukemia = tested on: HL-60(TB) leukemia
HOP-62 NSCLC = tested on: HOP-62 NSCLC
HOP-92 NSCLC = tested on: HOP-92 NSCLC
HS 578T breast = tested on: HS 578T breast
HT29 colon = tested on: HT29 colon
IGROV1 ovarian = tested on: IGROV1 ovarian
K-562 leukemia = tested on: K-562 leukemia
KM12 colon = tested on: KM12 colon
LOX IMVI melanoma = tested on: LOX IMVI melanoma
M14 melanoma = tested on: M14 melanoma
MALME-3M melanoma = tested on: MALME-3M melanoma
MCF7 breast = tested on: MCF7 breast
MDA-MB-231 breast = tested on: MDA-MB-231 breast
MDA-MB-435 = tested on: MDA-MB-435
MDA-N = tested on: MDA-N
NCI-H226 lung = tested on: NCI-H226 lung
NCI-H23 lung = tested on: NCI-H23 lung
NCI-H460 lung = tested on: NCI-H460 lung
NCI/ADR-RES ovarian = tested on: NCI/ADR-RES ovarian
OVCAR-3 ovarian = tested on: OVCAR-3 ovarian
OVCAR-4 ovarian = tested on: OVCAR-4 ovarian
OVCAR-5 ovarian = tested on: OVCAR-5 ovarian
OVCAR-8 ovarian = tested on: OVCAR-8 ovarian
PC-3 prostate = tested on: PC-3 prostate
RPMI-8226 leukemia = tested on: RPMI-8226 leukemia
RXF 393 renal = tested on: RXF 393 renal
SF-268 CNS = tested on: SF-268 CNS
SF-295 CNS = tested on: SF-295 CNS
SF-539 CNS = tested on: SF-539 CNS
SK-MEL-2 melanoma = tested on: SK-MEL-2 melanoma
SK-MEL-28 melanoma = tested on: SK-MEL-28 melanoma
SK-MEL-5 melanoma = tested on: SK-MEL-5 melanoma
SK-OV-3 ovarian = tested on: SK-OV-3 ovarian
SN12C renal = tested on: SN12C renal
SNB-19 CNS = tested on: SNB-19 CNS
SR leukemia = tested on: SR leukemia
SW-620 colon = tested on: SW-620 colon
T-47D breast = tested on: T-47D breast
TK-10 renal = tested on: TK-10 renal
U251 CNS = tested on: U251 CNS
UACC-257 melanoma = tested on: UACC-257 melanoma
UO-31 renal = tested on: UO-31 renal
786-0 renal = tested on: 786-0 renal
A498 renal = tested on: A498 renal
BT-549 breast = tested on: BT-549 breast
MOLT-4 leukemia = tested on: MOLT-4 leukemia
NCI-H522 lung = tested on: NCI-H522 lung
SNB-75 CNS = tested on: SNB-75 CNS
UACC-62 melanoma = tested on: UACC-62 melanoma

CC1(C)N=C(/C(Cl)=[N+](/[O-])C(=O)c2ccc(Cl)cc2)C(C)(C)N1O
TGI (A549 NSCLC): > 100 µM
TGI (ACHN renal): > 100 µM
TGI (CAKI-1 renal): 42.7 µM
TGI (CCRF-CEM leukemia): 45.7 µM
TGI (COLO 205 colon): 34.2 µM
TGI (DU-145 prostate): > 100 µM
TGI (EKVX NSCLC): > 100 µM
TGI (HCC-2998 colon): 63 µM
TGI (HCT-116 colon): 32.5 µM
TGI (HCT-15 colon): 35.8 µM
TGI (HL-60(TB) leukemia): 60.7 µM
TGI (HOP-62 NSCLC): > 100 µM
TGI (HOP-92 NSCLC): 31.4 µM
TGI (HS 578T breast): > 100 µM
TGI (HT29 colon): 43 µM
TGI (IGROV1 ovarian): > 100 µM
TGI (K-562 leukemia): > 100 µM
TGI (KM12 colon): > 100 µM
TGI (LOX IMVI melanoma): 20.4 µM
TGI (M14 melanoma): 32.1 µM
TGI (MALME-3M melanoma): 35.9 µM
TGI (MCF7 breast): 32.7 µM
TGI (MDA-MB-231 breast): 40 µM
TGI (MDA-MB-435): 52.4 µM
TGI (MDA-N): 32.4 µM
TGI (NCI-H226 lung): 72.6 µM
TGI (NCI-H23 lung): 48.6 µM
TGI (NCI-H460 lung): > 100 µM
TGI (NCI/ADR-RES ovarian): 63.8 µM
TGI (OVCAR-3 ovarian): 32.4 µM
TGI (OVCAR-4 ovarian): 68.5 µM
TGI (OVCAR-5 ovarian): 42.5 µM
TGI (OVCAR-8 ovarian): 45.3 µM
TGI (PC-3 prostate): 37.5 µM
TGI (RPMI-8226 leukemia): 72.6 µM
TGI (RXF 393 renal): 38 µM
TGI (SF-268 CNS): 89.2 µM
TGI (SF-295 CNS): > 100 µM
TGI (SF-539 CNS): 44 µM
TGI (SK-MEL-2 melanoma): > 100 µM
TGI (SK-MEL-28 melanoma): 37.3 µM
TGI (SK-MEL-5 melanoma): 43.2 µM
TGI (SK-OV-3 ovarian): > 100 µM
TGI (SN12C renal): 47 µM
TGI (SNB-19 CNS): > 100 µM
TGI (SR leukemia): > 100 µM
TGI (SW-620 colon): 44.9 µM
TGI (T-47D breast): 95.1 µM
TGI (TK-10 renal): 38.8 µM
TGI (U251 CNS): 55.5 µM
TGI (UACC-257 melanoma): 38.1 µM
TGI (UO-31 renal): > 100 µM

O=c1[nH]c2ccccc2cc1-c1nnc(Cc2ccccc2)o1
GI50 (786-0 renal): 4 µM
TGI (786-0 renal): 14.6 µM
GI50 (A498 renal): 13.3 µM
TGI (A498 renal): 27.1 µM
GI50 (A549 NSCLC): 15.7 µM
TGI (A549 NSCLC): > 100 µM
GI50 (BT-549 breast): 2.56 µM
TGI (BT-549 breast): 10.2 µM
GI50 (CAKI-1 renal): 3.65 µM
TGI (CAKI-1 renal): 14.4 µM
GI50 (CCRF-CEM leukemia): 1.7 µM
TGI (CCRF-CEM leukemia): 7.79 µM
GI50 (COLO 205 colon): 3.55 µM
TGI (COLO 205 colon): 13.2 µM
GI50 (DU-145 prostate): 5.18 µM
TGI (DU-145 prostate): 18.5 µM
GI50 (HCC-2998 colon): 12.7 µM
TGI (HCC-2998 colon): 27.5 µM
GI50 (HCT-116 colon): 1.41 µM
TGI (HCT-116 colon): 3.1 µM
GI50 (HCT-15 colon): 3.3 µM
TGI (HCT-15 colon): 13.5 µM
GI50 (HL-60(TB) leukemia): 3.43 µM
TGI (HL-60(TB) leukemia): 21.2 µM
GI50 (HOP-62 NSCLC): 12.6 µM
TGI (HOP-62 NSCLC): 34.3 µM
GI50 (HOP-92 NSCLC): 3.34 µM
TGI (HOP-92 NSCLC): 15.3 µM
GI50 (HS 578T breast): 13.3 µM
TGI (HS 578T breast): > 100 µM
GI50 (HT29 colon): 3.78 µM
TGI (HT29 colon): 12.9 µM
GI50 (IGROV1 ovarian): 5.2 µM
TGI (IGROV1 ovarian): 27.1 µM
GI50 (K-562 leukemia): 3.29 µM
TGI (K-562 leukemia): 14.4 µM
GI50 (KM12 colon): 10.4 µM
TGI (KM12 colon): 28.4 µM
GI50 (LOX IMVI melanoma): 1.75 µM
TGI (LOX IMVI melanoma): 4.3 µM
GI50 (M14 melanoma): 3.16 µM
TGI (M14 melanoma): 15.2 µM
GI50 (MALME-3M melanoma): 3.94 µM
TGI (MALME-3M melanoma): 16.2 µM
GI50 (MCF7 breast): 2.41 µM
TGI (MCF7 breast): 12.9 µM
GI50 (MDA-MB-231 breast): 3.29 µM
TGI (MDA-MB-231 breast): 14.7 µM
GI50 (MDA-MB-435): 3.51 µM
TGI (MDA-MB-435): 17.5 µM
GI50 (MOLT-4 leukemia): 2.67 µM
TGI (MOLT-4 leukemia): 9.22 µM
GI50 (NCI-H226 lung): 11.5 µM
TGI (NCI-H226 lung): 94.4 µM
GI50 (NCI-H23 lung): 11.3 µM
TGI (NCI-H23 lung): 39.5 µM
GI50 (NCI-H460 lung): 6.63 µM
TGI (NCI-H460 lung): 28.3 µM
GI50 (NCI-H522 lung): 2.27 µM
TGI (NCI-H522 lung): 5.9 µM
GI50 (NCI/ADR-RES ovarian): 14.4 µM
TGI (NCI/ADR-RES ovarian): 71.1 µM
GI50 (OVCAR-3 ovarian): 3.25 µM
TGI (OVCAR-3 ovarian): 11 µM
GI50 (OVCAR-4 ovarian): 4.23 µM
TGI (OVCAR-4 ovarian): 18.3 µM
GI50 (PC-3 prostate): 4.16 µM
TGI (PC-3 prostate): 70.6 µM
GI50 (RPMI-8226 leukemia): 1.94 µM
TGI (RPMI-8226 leukemia): 6.67 µM
GI50 (RXF 393 renal): 2.93 µM
TGI (RXF 393 renal): 10.9 µM
GI50 (SF-268 CNS): 10.7 µM
TGI (SF-268 CNS): 42 µM
GI50 (SF-295 CNS): 11.2 µM
TGI (SF-295 CNS): 32.2 µM
GI50 (SK-MEL-5 melanoma): 3.43 µM
TGI (SK-MEL-5 melanoma): 16.4 µM
GI50 (SK-OV-3 ovarian): 18.3 µM
TGI (SK-OV-3 ovarian): 38.1 µM
GI50 (SN12C renal): 3.46 µM
TGI (SN12C renal): 28.2 µM
GI50 (SNB-19 CNS): 12.9 µM
TGI (SNB-19 CNS): 38.1 µM
GI50 (SNB-75 CNS): 6.07 µM
TGI (SNB-75 CNS): 21.4 µM
GI50 (SR leukemia): 2.03 µM
TGI (SR leukemia): 10.9 µM
GI50 (SW-620 colon): 1.87 µM
TGI (SW-620 colon): 4.16 µM
GI50 (T-47D breast): 3.04 µM
TGI (T-47D breast): 17.1 µM
GI50 (TK-10 renal): 5.23 µM
TGI (TK-10 renal): 16 µM
GI50 (U251 CNS): 4.12 µM
TGI (U251 CNS): 14.9 µM
GI50 (UACC-257 melanoma): 4.79 µM
TGI (UACC-257 melanoma): 24.4 µM
GI50 (UACC-62 melanoma): 3.43 µM
TGI (UACC-62 melanoma): 15.6 µM
GI50 (UO-31 renal): 1.72 µM
TGI (UO-31 renal): 3.72 µM

C/C(=N/NC(=S)Nc1ccc(C)cc1)c1ccccn1
TGI (786-0 renal): 12.7 µM
TGI (A498 renal): 15.9 µM
TGI (A549 NSCLC): 14 µM
TGI (ACHN renal): 11.9 µM
TGI (BT-549 breast): 18.7 µM
TGI (CAKI-1 renal): 13.9 µM
TGI (CCRF-CEM leukemia): 4.64 µM
TGI (COLO 205 colon): 1.95 µM
TGI (DU-145 prostate): 10.4 µM
TGI (EKVX NSCLC): 5.12 µM
TGI (HCC-2998 colon): 18.6 µM
TGI (HCT-116 colon): 13 µM
TGI (HCT-15 colon): 17.6 µM
TGI (HL-60(TB) leukemia): 0.608 µM
TGI (HOP-62 NSCLC): 5.55 µM
TGI (HOP-92 NSCLC): 12.5 µM
TGI (HS 578T breast): 17 µM
TGI (HT29 colon): 19.4 µM
TGI (IGROV1 ovarian): 13.6 µM
TGI (K-562 leukemia): 6.09 µM
TGI (KM12 colon): 15.5 µM
TGI (LOX IMVI melanoma): 20.8 µM
TGI (M14 melanoma): 2.37 µM
TGI (MALME-3M melanoma): 8.71 µM
TGI (MCF7 breast): 16.6 µM
TGI (MDA-MB-231 breast): 18.7 µM
TGI (MDA-MB-435): 15 µM
TGI (MDA-N): 13.8 µM
TGI (MOLT-4 leukemia): 2.53 µM
TGI (NCI-H226 lung): 2.6 µM
TGI (NCI-H23 lung): 16.1 µM
TGI (NCI-H460 lung): 7.95 µM
TGI (NCI-H522 lung): 12 µM
TGI (NCI/ADR-RES ovarian): 1.34 µM
TGI (OVCAR-3 ovarian): 12.2 µM
TGI (OVCAR-4 ovarian): 17.2 µM
TGI (OVCAR-5 ovarian): 9.55 µM
TGI (OVCAR-8 ovarian): 7.51 µM
TGI (PC-3 prostate): 13.7 µM
TGI (RPMI-8226 leukemia): 25.7 µM
TGI (RXF 393 renal): 11 µM
TGI (SF-268 CNS): 16.4 µM
TGI (SF-295 CNS): 11.8 µM
TGI (SF-539 CNS): 7.41 µM
TGI (SK-MEL-2 melanoma): 13.9 µM
TGI (SK-MEL-28 melanoma): 24.3 µM
TGI (SK-MEL-5 melanoma): 2.29 µM
TGI (SK-OV-3 ovarian): 17 µM
TGI (SN12C renal): 7.65 µM
TGI (SNB-19 CNS): 20.6 µM
TGI (SNB-75 CNS): 17.2 µM
TGI (SW-620 colon): 18.6 µM
TGI (TK-10 renal): 6.77 µM
TGI (U251 CNS): 14.8 µM
TGI (UACC-257 melanoma): 0.802 µM
TGI (UACC-62 melanoma): 2.64 µM
TGI (UO-31 renal): 12.6 µM
